Where “and” joins values, the source holds several entries; their conditions need not be identical. Equal values may be shown once. Where no end group is shown, it is not given here. Side-chain parts run from the residue outwards. rhodamine‑labelled PEGylated perfluoro‑15‑crown‑5 ether nanoemulsion = not defined here; carboxyfluorescein = N-terminal fluorescence label (CF)

For one test, the system named is human neutrophils. The test is described as follows: Cell surface activation markers CD11b, CD63, CD66b on human neutrophils. The class given is cell-based. The note with it: 50 µl ml^−1 hNPPFCs or 1 µg ml^−1 LPS, 1 h, 37 °C. The method, then: A total of 1 × 10^6 isolated human neutrophils were incubated with 50 µl ml^−1 ^hNPPFCs, 1 µg ml^−1 LPS or only DMEM for 1 h at 37 °C followed by intense washing with MACS buffer. Afterward, 1 × 10^5 cells were transferred into 96-well plates and stained for CD11b and CD63 (eBioscience, clone HSC6) or CD66b (eBioscience, clone G10F5) for 20 min at 4 °C. After two washing steps with MACS buffer, cells were analyzed by flow cytometry. A total of 1 × 10^5 isolated murine neutrophils were transferred into a 96-well plate and stained for CD11b, CD62L and CD63 for 20 min at 4 °C. After two washing steps with MACS buffer, cells were analyzed by flow cytometry.

The subject of the next test is bone marrow neutrophils. The test is described as follows: In vivo mNPPFC labeling of bone marrow neutrophils after Matrigel-LPS, 1H/19F MRI. Also noted: species or system mouse. The note with it: individual experiments; for total amount of 19F in the bone marrow (1H/19F MRI): mNPPFCs 1 mmol per kg BW i.v. 24 h after implantation, MRI another 24 h later; for 19F signal normalized to the number of neutrophils in the bone marrow: neutrophil number by flow cytometry directly after MRI. The method, then:
(§1) To induce defined inflammatory foci, we adopted a recently developed model of localized subcutaneous inflammation. To this end, ice-cold Matrigel (Corning) was doped with LPS (1 µg µl^−1; Salmonella typhimurium, Sigma-Aldrich) and subcutaneously (s.c.) implanted into the neck of the mice. Twenty-four hours after implanting the plug, neutrophils were isolated from the blood and incubated ex vivo with ^mNPPFCs or ^ConPFCs. In separate experiments, 24 h after implantation, ^mNPPFCs or ^ConPFCs were injected intravenously, and immune cells were isolated from the blood. In further experiments, 1 d after plug injection, mice received 1 mmol per kg BW ^mNPPFCs, and, 24 h later, the bone marrow was analyzed by ^1H/^19F MRI. Thereafter, mice were killed, and neutrophils were isolated from the bone marrow for determination of cell numbers. In each case, immune cells were analyzed by flow cytometry.
Slice packages were placed in sagittal orientation to cover the complete bone marrow in the tibia and femur in both legs using the following scan details: ^1H RARE, TR = 2,000 ms, FOV = 4.00 × 2.56 cm^2, matrix = 256 × 256, ST = 1 mm, tAcq = 1 min; ^19F RARE, TR = 2,500 ms, FOV = 4.00 × 2.56 cm^2, matrix = 64 × 64, ST = 3 mm, tAcq = 10 min.
On the technique in general: Flow cytometry measures light scatter and fluorescence of single cells or particles in a stream.

Another test concerns murine neutrophils. The test is described as follows: Ex vivo mNPPFC uptake by neutrophils from mice with Matrigel-LPS plug, flow cytometry. It is filed as cell-based, mouse. Also noted: ex vivo uptake by murine neutrophils, Ctrl - mNPPFCs, raw data: unit not given here. Particulars: for ex vivo uptake by murine neutrophils, Ctrl - mNPPFCs, raw data: Ctrl mice, single samples #1-#5. The method, then: as §1
A total of 1 × 10^6 cells were incubated with 10 µl of the emulsion over a period of 80 min at 37 °C. At distinct time points, 50 µl of the samples were transferred into 2 ml of ice-cold MACS buffer and analyzed for rhodamine fluorescence by flow cytometry.

As to “hNPPFCs: PEGylated rhodamine-labeled perfluorocarbon nanoemulsion coupled with human neutrophil-specific peptide hNP (carboxyfluorescein-DLVTSKLQVGGGC; also: C-terminal Cys coupled via maleimide-PEG2000-DSPE to rhodamine-labelled perfluorocarbon nanoemulsion)”, the “expression of CD11b, CD63 and CD66b on human neutrophils” value in the test with human neutrophils is on record as “did not affect expression of these proteins”.
On to “mNPPFCs: PEGylated rhodamine-labeled perfluoro-15-crown-5 ether nanoemulsion (maleimide PFCs) coupled with murine neutrophil-specific peptide mNP (carboxyfluorescein-DFYKPMPNLRITGGGC([maleimide‑PEG2000‑DSPE-rhodamine‑labelled PEGylated perfluoro‑15‑crown‑5 ether nanoemulsion]); reading uncertain; also: printed as DFYKPMPNLRIT-GGG-C)”, for which the “total amount of 19F in the bone marrow (1H/19F MRI)” value in the test on bone marrow neutrophils (Ctrl: Matrigel-PBS plug) is 505497 and 895713 and 688103 and 1.24E+06 and 1.03E+06; in the test with bone marrow neutrophils (LPS: Matrigel-LPS plug), 1632050.00 and 894870.00 and 1335810.00 and 1304290.00 and 940933.00. Also, the “19F signal normalized to the number of neutrophils in the bone marrow” value is 5335.62 and 16297.54 and 4781.15 and 12000.14 and 6924.34 with bone marrow neutrophils (Ctrl: Matrigel-PBS plug); 47748.80 and 38144.50 and 144567.64 and 78101.02 and 94661.27 with bone marrow neutrophils (LPS: Matrigel-LPS plug). Further, the “ex vivo uptake by murine neutrophils under LPS-stimulated versus unstimulated conditions” value with murine neutrophils (24 h after Matrigel-LPS implantation) is “more rapid and potent uptake”. For the same substance, the “ex vivo uptake by murine neutrophils, Ctrl - mNPPFCs, raw data” value with murine neutrophils (time 0) was 101 and 127 and 111 and 105; in the test with murine neutrophils (time 40), 4266 and 3190 and 3194 and 3820 and 4700.
